In US20070021509A1, “Phosphate transport inhibitors” (priority 2001, published 2007):

These molecules were tested on phosphate uptake by rabbit intestinal Brush Border Membrane Vesicles (BBMV) (assay: 33PO4 uptake in rabbit intestinal BBMV (HTS), phosphate transporter inhibition in vitro). Conditions: Table 1, phosphate uptake, read-out: IC50.
Type: biochemical
Protocol: The following example outlines the procedures required for in vitro measurement of the inhibition of phosphate uptake by rabbit intestinal Brush Border Membrane Vesicles (BBMV).
Rabbit Intestinal Brush Border Membrane Vesicles (BBMV) were isolated from mucosal scrapings of the upper small intestine (duodenum) of male New Zealand White rabbits. The scrapings were divided into 2 g aliquots in cryopreservation vials, frozen in liquid nitrogen, and stored at −80° C.
The following procedure was performed for each 2 g sample of BBMV mucosal scraping. Buffer volumes and container sizes were adjusted appropriately for the number of 2 g samples used. The entire preparation was performed on ice, unless otherwise stated.
Mucosal scrapings (2 g per tube) were thawed in a 37° C. water bath for 3 minutes and then placed on ice. The scrapings were suspended with a total of 7.5 ml of 300 MET, and transferred to a 250 mL Corning tube on ice. To the suspension was added 30 mL cold (4° C.) deionized water (dH20). The suspension was homogenized with a tissue homogenizer (Polytron) on high speed for 2 minutes. A stir bar and MgCl2 (81.3 mg) was added. The suspension was mixed well by inverting the closed tube. The suspension was stirred on ice, ensuring that a good vortex is achieved with the stir bar, for 40 minutes. The suspension was transferred to a chilled centrifuge tube and spun at 4000×g for 15 minutes. The supernatant was transferred to a new chilled centrifuge tube and spun at 32000×g for 30 minutes. The supernatant was discarded and the pellet was re-suspended with 34 mL cold 60 MET. The suspension was homogenized with a Dounce homogenizer with 8 strokes. The suspension was transferred to a fresh 250 mL Corning tube. A stir bar and 69.1 mg MgCl2 were added. The suspension was stirred well on ice for 10 minutes. The suspension was transferred to a chilled centrifuge tube and spun at 4000×g for 15 minutes. The supernatant was transferred to a new chilled centrifuge tube and spun at 32000×g for 30 minutes. The supernatant was discarded. At this stage, the preparation could be continued or this pellet (P4) could be frozen in liquid nitrogen and stored at −80° C. When needed, this pellet could be allowed to thaw at room temperature for 5 minutes. Continuing the preparation, the pellet was re-suspended with 34 mL cold 280 MH. The suspension was homogenized in a Dounce homogenize with 8 strokes. The suspension was transferred to a new chilled centrifuge tube and spun at 32000×g for 30 minutes. The supernatant was discarded. To the pellet was added 500 μL 280 MH and the pellet was re-suspended very carefully with a 1 mL tuberculin syringe with a 25-gauge needle with care not to create bubbles. Once the entire pellet was suspended, the suspension was transferred to a chilled 1.5 mL microfuge tube. The suspension was evenly dispersed by bringing the suspension up into the syringe through the 25-gauge needle, and back out again 8 times with care not to create bubbles. The total protein concentration was determined by performing a Bradford Protein Assay. Using that value, the BBMV were diluted with 280 MH to reach approximately 0.5-2.0 mg/mL. The solution was used as soon as possible for uptake studies.
The following experiment was performed using a Beckman Multimek 96-tip robotic pipettor. The following outlines the preparation required to screen one 96-well plate of compounds. However, multiple plates could be screened in one experiment.
To the “Uptake Buffers” was added ^33PO4 to reach 200,000 CPM/19 μL. The buffer solutions were stored at room temperature. The following control solutions were prepared and placed into appropriate wells of a polypropylene, 96-well V-bottom plate (“Hot Stock Plate”):
a. Maximum activity (MAX)−Na Uptake buffer+^33PO4 at 200,000 CPM/19 μL
b. Midline activity (MID)−MAX+100 μM KH2PO4, pH 7.4
c. Minimum activity (MIN)− K Uptake buffer+^33PO4 at 200,000 CPM/19 μL

| IC50 | Structure (SMILES) |
| --- | --- |
| > 1500 µM | O=C(O)c1ccc(S(=O)(=O)Nc2ccc(Br)cc2C(=O)O)cc1 [Compound 47] |
| > 1500 µM | O=C(O)c1cc(Br)ccc1NS(=O)(=O)c1ccc(Cl)cc1 [Compound 43] |
| 51 to 100 µM | Cc1cc(C)c(S(=O)(=O)Nc2ccc(Br)cc2C(=O)O)c(C)c1 [Compound 6] |
| > 1500 µM | O=C(O)c1cc(Br)ccc1NS(=O)(=O)c1ccc(OC(F)(F)F)cc1 [Compound 41] |
| 101 to 500 µM | O=C(O)c1cc(Br)ccc1NS(=O)(=O)c1ccc(I)cc1 [Compound 24] |
| 101 to 500 µM | O=C(O)c1cc(Br)ccc1NS(=O)(=O)c1ccc(Cl)cc1 [Compound 29] |
| > 1500 µM | COc1ccc(S(=O)(=O)Nc2ccc(Br)cc2C(=O)O)cc1[N+](=O)[O-] [Compound 42] |
| 101 to 500 µM | O=C(O)c1cc(Br)ccc1NS(=O)(=O)c1cccc(C(F)(F)F)c1 [Compound 16] |
| < 50 µM | O=C(O)c1cc(Br)ccc1NS(=O)(=O)c1ccc(-c2ccccc2)cc1 [Compound 1] |
| 51 to 100 µM | O=C(O)c1cc(Br)ccc1NS(=O)(=O)c1ccc([N+](=O)[O-])cc1 [Compound 5] |
| 101 to 500 µM | O=C(O)c1cc(Br)ccc1NS(=O)(=O)c1cccc(F)c1 [Compound 34] |
| > 1500 µM | O=C(O)c1cc(Br)ccc1NS(=O)(=O)c1ccc(Cl)c([N+](=O)[O-])c1 [Compound 40] |

Same assay, conditions: Table 2, phosphate uptake, read-out: IC50

| IC50 | Structure (SMILES) |
| --- | --- |
| 51 to 100 µM | Cc1ccccc1CNC(=O)c1cc(Br)ccc1NS(=O)(=O)c1ccc(OC(F)(F)F)cc1 [Compound 67] |
| > 1500 µM | Cc1ccccc1NC(=O)c1cc(Br)ccc1NS(=O)(=O)c1ccc(Cl)cc1 [Compound 94] |
| 51 to 100 µM | COc1ccc(S(=O)(=O)Nc2ccc(Br)cc2C(=O)Nc2ccccc2F)cc1[N+](=O)[O-] [Compound 102] |
| 51 to 100 µM | O=C(Nc1ccccc1Cl)c1cc(Br)ccc1NS(=O)(=O)c1ccc(Cl)cc1 [Compound 86] |
| 51 to 100 µM | O=C(Nc1cc(Cl)ccc1Cl)c1cc(Br)ccc1NS(=O)(=O)c1ccc(Cl)cc1 [Compound 87] |
| 51 to 100 µM | COc1ccc(S(=O)(=O)Nc2ccc(Br)cc2C(=O)Nc2cccc(Cl)c2C)cc1[N+](=O)[O-] [Compound 100] |
| 101 to 500 µM | O=C(Nc1ccc(Oc2ccccc2)cc1)c1cc(Br)ccc1NS(=O)(=O)c1ccc(OC(F)(F)F)cc1 [Compound 74] |
| < 50 µM | O=C(Nc1ccccc1Cl)c1cc(Br)ccc1NS(=O)(=O)c1ccc(OC(F)(F)F)cc1 [Compound 50] |
| < 50 µM | O=C(NCc1ccc(Cl)cc1)c1cc(Br)ccc1NS(=O)(=O)c1ccc(OC(F)(F)F)cc1 [Compound 53] |
| 101 to 500 µM | COc1ccccc1NC(=O)c1cc(Br)ccc1NS(=O)(=O)c1ccc(OC)c([N+](=O)[O-])c1 [Compound 106] |
| 51 to 100 µM | O=C(Nc1ccc(Cl)c(Cl)c1)c1cc(Br)ccc1NS(=O)(=O)c1ccc(Cl)c([N+](=O)[O-])c1 [Compound 113] |
| 51 to 100 µM | COc1ccc(NC(=O)c2cc(Br)ccc2NS(=O)(=O)c2ccc(OC(F)(F)F)cc2)cc1 [Compound 56] |
| > 1500 µM | O=C(Nc1ccc(Cl)cc1Cl)c1cc(Br)ccc1NS(=O)(=O)c1ccc(Cl)c([N+](=O)[O-])c1 [Compound 120] |
| < 50 µM | COc1cccc(CNC(=O)c2cc(Br)ccc2NS(=O)(=O)c2ccc(OC(F)(F)F)cc2)c1 [Compound 54] |
| 501 to 1000 µM | CCCCCCCCCCc1ccc(NC(=O)c2cc(Br)ccc2NS(=O)(=O)c2ccc(OC(F)(F)F)cc2)cc1 [Compound 81] |

Same assay, conditions: Table 3, 100 μM compound

| Structure (SMILES) | % Inhib. At 100 μM |
| --- | --- |
| O=S(=O)(NCc1ccccc1Cl)c1ccc(OC(F)(F)F)cc1 [Compound 133] | 77% |
| O=S(=O)(c1ccccc1)n1nnc2ccccc21 [Compound 143] | 64% |
| O=S(=O)(Nc1ccccc1-n1cccc1)c1ccc(OC(F)(F)F)cc1 [Compound 134] | 76% |
| O=S(=O)(Nc1ccccc1)c1ccccc1 [Compound 159] | 36% |
| O=C(Nc1ccccn1)c1cc(Br)ccc1NS(=O)(=O)c1ccc(OC(F)(F)F)cc1 [Compound 174] | 84% |
| O=S(=O)(Nc1cc(C(F)(F)F)c(Cl)cc1Cl)c1cc(C(F)(F)F)cc(C(F)(F)F)c1 [Compound 146] | 62% |
| CC(C)(C)c1ccc(NS(=O)(=O)c2ccc(OC(F)(F)F)cc2)cc1 [Compound 138] | 71% |
| O=S(=O)(Nc1ccccc1Br)c1ccc(OC(F)(F)F)cc1 [Compound 149] | 57% |
| COc1ccc(NC(=O)c2cc(Br)ccc2NS(=O)(=O)c2ccc(OC(F)(F)F)cc2)c([N+](=O)[O-])c1 [Compound 175] | 78% |
| O=C(Nc1ccc(Br)cc1C(F)(F)F)c1cc(Br)ccc1NS(=O)(=O)c1ccc(OC(F)(F)F)cc1 [Compound 169] | 106% |
| Nc1cc(Br)ccc1N(c1ccc(OC(F)(F)F)cc1)S(=O)(=O)c1ccc(OC(F)(F)F)cc1 [Compound 136] | 76% |
| O=S(=O)(c1ccc2ccccc2c1)N1CCc2ccccc21 [Compound 155] | 51% |
| O=S(=O)(NCc1ccc(F)cc1F)c1ccc(OC(F)(F)F)cc1 [Compound 153] | 53% |
| O=[N+]([O-])c1ccc(NS(=O)(=O)c2ccc(OC(F)(F)F)cc2)cc1 [Compound 156] | 46% |
| O=C(Nc1ccc(I)cc1F)c1cc(Br)ccc1NS(=O)(=O)c1ccc(OC(F)(F)F)cc1 [Compound 171] | 100% |

Same assay, conditions: Table 4, phosphate uptake, read-out: IC50

| IC50 | Structure (SMILES) |
| --- | --- |
| > 1500 µM | O=C(Nc1cccc(Br)c1)Nc1ccc(Br)cc1P(=O)(O)O [Compound 211] |
| 1000 to 1500 µM | O=C(Nc1ccc(Br)cc1P(=O)(O)O)Nc1c(F)cccc1F [Compound 204] |
| 101 to 500 µM | O=C(Nc1ccc(Cl)c(C(F)(F)F)c1)Nc1ccc(Br)cc1P(=O)(O)O [Compound 185] |

Same assay, conditions: Table 5, 100 μM compound

| Structure (SMILES) | % Inhib. at 100 μM |
| --- | --- |
| O=C(Nc1cc(Cl)cc(Cl)c1)Nc1cccc(C(F)(F)F)c1 [Compound 217] | 95% |

Same assay, conditions: Table 6, 100 μM compound

| Structure (SMILES) | % Inhib. at 100 μM |
| --- | --- |
| COc1ccc(C2=NOC(c3ccco3)C2)cc1 (stereo not drawn) [Compound 237] | 40% |

Same assay, conditions: Table 7, phosphate uptake, read-out: IC50

| IC50 | Structure (SMILES) |
| --- | --- |
| 101 to 500 µM | Cn1nc(-c2ccc(O)cc2)cc1-c1cccc(F)c1 [Compound 241] |

Same assay, conditions: Table 9, 100 μM compound

| Structure (SMILES) | % Inhib. at 100 μM |
| --- | --- |
| O=C(/C=C/c1ccc(Br)cc1)c1cc(Cl)cc(Cl)c1O [Compound 249] | 50% |

Same assay, conditions: Table 10, phosphate uptake, read-out: IC50

| IC50 | Structure (SMILES) |
| --- | --- |
| 101 to 500 µM | O=C(Nc1ccc(Cl)cc1)c1cc(Br)cc(Br)c1O [Compound 255] |
| > 1500 µM | O=C(Nc1ccc(Br)cc1I)c1ccc(OC(F)(F)F)cc1 [Compound 271] |

More lines, now with the values behind:

| Structure (SMILES) | IC50 |
| --- | --- |
| COc1ccc(NC(=O)c2cc3ccc4c5ccccc5[nH]c4c3cc2O)cc1 [Compound 257] | 101 to 500 µM |
| O=C(Nc1ccc(Oc2ccc3ccccc3c2Br)c(Cl)c1)c1cc(Br)cc(Br)c1O [Compound 254] | 101 to 500 µM |

Same assay, conditions: Table 11, phosphate uptake, read-out: IC50

| IC50 | Structure (SMILES) |
| --- | --- |
| > 1500 µM | O=C(/C=C/c1cccc(F)c1)c1cccc(Oc2ccccc2)c1 [Compound 279] |
| 501 to 1000 µM | COc1cccc(C(=O)/C=C/c2ccco2)c1 [Compound 275] |

Same assay, conditions: Table 12, 100 μM compound

| Structure (SMILES) | % Inhib. at 100 μM |
| --- | --- |
| O=S(=O)(Cc1c(F)cccc1Cl)c1ccc(Cl)cc1 [Compound 286] | 39% |
| O=S(=O)(Cc1ccc(Cl)cc1Cl)c1cc(C(F)(F)F)cc(C(F)(F)F)c1 [Compound 280] | 57% |
| O=S(=O)(Cc1ccccc1)c1ccccc1 [Compound 287] | 34% |

Same assay, conditions: Table 13, phosphate uptake, read-out: IC50

| Structure (SMILES) | IC50 |
| --- | --- |
| O=C(Nc1ccc(/C=C/c2ccc(NC(=O)c3ccccc3)cc2S(=O)(=O)O)c(S(=O)(=O)O)c1)c1ccccc1 [Compound 300] | 501 to 1000 µM |
| O=[N+]([O-])c1ccc(S(=O)(=O)Nc2ccc(/C=C/c3ccc(NS(=O)(=O)c4ccc([N+](=O)[O-])cc4)cc3S(=O)(=O)O)c(S(=O)(=O)O)c2)cc1 [Compound 294] | 101 to 500 µM |
